In PMC10754118, “Lipophilic Nucleoside Triphosphate Prodrugs of Anti‐HIV Active Nucleoside Analogs as Potential Antiviral Compounds” (Advanced Science, 2023):

Legend:
HIV‐RT = biological target: T1, HIV‐RT (Human immunodeficiency virus type 1 group M subtype B, UniProt P03366); set-up: method as in PMID 37647547; details: cited from earlier work
T1 construct: HIV reverse transcriptase (HIV‐RT); purchased Roboklon

CEM/0 = assay: in vitro; details: read-out: Toxicity CEM/0 CC50; 50% cytostatic concentration, CEM proliferation
Protocol: All TriPPPro‐compounds 10 and 20, as well as their parent nucleosides and the corresponding NTPs, were evaluated for their antiviral activity (expressed as EC50 values) against HIV‐1 (wild‐type CEM/0 cells) and HIV‐2 (wild‐type CEM/0 cells and thymidine kinase‐deficient (CEM/TK^−) cells) with concomitant determination of cytotoxicity in the same cell line (Table 3 ).

HIV‐2 [ROD)] = assay: Anti-HIV activity, HIV-2 in thymidine kinase-deficient CEM/TK^− cells; format: cell-based; details: thymidine kinase-deficient CEM/TK^− cells, mean ±SD n = 2–3; read-out: Antiviral activity CEM/TK^− HIV‐2 [ROD)] EC50
HIV‐1 [HE] = assay: Anti-HIV activity, HIV-1 in wild-type CEM/0 cells; format: cell-based; details: wild-type CEM/0 cells, mean ±SD n = 2–3; read-out: Antiviral activity CEM/0 HIV‐1 [HE] EC50
HIV‐2 [ROD] = assay: Anti-HIV activity, HIV-2 in wild-type CEM/0 cells; format: cell-based; details: wild-type CEM/0 cells, mean ±SD n = 2–3; read-out: Antiviral activity CEM/0 HIV‐2 [ROD] EC50

Structure (SMILES)	accepted by HIV‐RT as a substrate (HIV‐RT)	CC50 (CEM/0)	EC50 (HIV‐2 [ROD)])	EC50 (HIV‐1 [HE])	EC50 (HIV‐2 [ROD])
Cc1cn([C@H]2C=C[C@@H](COP(=O)(O)OP(=O)(O)OP(=O)(O)O)O2)c(=O)[nH]c1=O [d4TTP]	accepted				
Cc1cn([C@H]2C[C@H](F)[C@@H](COP(=O)(O)OP(=O)(O)OP(=O)(O)O)O2)c(=O)[nH]c1=O [FLTTP, reference compound]		> 100000 nM	4920 ± 2430 nM	7.6 ± 9.1 nM	18 ± 9 nM
Cc1cn([C@H]2C=C[C@@H](COP(=O)(O)OP(=O)(O)O)O2)c(=O)[nH]c1=O [d4TDP]	accepted				
O=c1[nH]c(=O)n([C@H]2C[C@H](F)[C@@H](COP(=O)(O)OP(=O)(O)OP(=O)(O)O)O2)cc1Cl [FddClUTP, reference compound]		> 100000 nM	> 100000 nM	840 ± 860 nM	650 ± 130 nM
